Four molecules from publication PMC8235216, “Structural Evidence of Active Site Adaptability towards Different Sized Substrates of Aromatic Amino Acid Aminotransferase from Psychrobacter Sp. B6” (Materials, 2021) can be followed below.

What all share (type): binding
Test [1] concerns the target T1, PsyArAT (psychrophilic aromatic amino acid aminotransferase) (Psychrobacter sp. B6, UniProt C7E5X4).
T1 construct: full-length Met1-Asp398, homodimer; E. coli; FOH/YOH/DOH complexes: protein as described previously; new construct: codon-optimised gene in pMCSG7, His6 tag removed by TEV, ArcticExpress (DE3)
The test can be described thus: X-ray crystal structure (co-crystallisation). Conditions: active site, competitive inhibitor; both monomers; 20-fold molar excess of ligand; pH 7.5; partial PLP occupancy.

The target of test [2] is T1, PsyArAT (psychrophilic aromatic amino acid aminotransferase). Briefly: X-ray crystal structure (crystals grown in DL-malic acid). Conditions: active site, competitive inhibitor; 2.1 M DL-malic acid pH 7.0, 0.1 M Tris-HCl pH 7.5.
The target is the same in test [3]. Briefly: X-ray crystal structure (soaking of native crystals). Conditions: active site, competitive inhibitor; bound in monomers A and C only; 10-fold molar excess of ligand, 5-fold PLP; pH 7.5.

T1 sequence (C7E5X4 entry or part of it): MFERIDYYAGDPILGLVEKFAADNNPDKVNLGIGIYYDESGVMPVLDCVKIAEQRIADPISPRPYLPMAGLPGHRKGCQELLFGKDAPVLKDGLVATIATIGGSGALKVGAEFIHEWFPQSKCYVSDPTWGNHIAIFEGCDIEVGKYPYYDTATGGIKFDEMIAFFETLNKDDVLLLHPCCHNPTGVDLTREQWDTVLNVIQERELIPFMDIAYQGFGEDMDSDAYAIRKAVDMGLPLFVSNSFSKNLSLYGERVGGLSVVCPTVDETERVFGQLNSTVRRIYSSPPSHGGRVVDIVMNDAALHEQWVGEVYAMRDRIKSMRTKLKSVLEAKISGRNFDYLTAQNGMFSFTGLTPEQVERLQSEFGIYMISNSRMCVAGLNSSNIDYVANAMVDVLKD

`O=C(O)[C@@H](O)Cc1ccccc1` [FOH, 3-phenyllactic acid]: the “X-ray crystal structure (co-crystallisation)” value in test [1] is reported as “carboxyl group of FOH creates two parallel hydrogen bonds with the guanidine group of Arg374”.

On to `O=C(O)C[C@H](O)C(=O)O` [DOH, L-malic acid], for which the “X-ray crystal structure (crystals grown in DL-malic acid)” value in test [2] is on record as “only L-malic acid (DOH) was bound in the active center”.

`O=C(O)[C@@H](O)Cc1c[nH]c2ccccc12` [WOH, 3-indolelactic acid]: in test [3], the “X-ray crystal structure (soaking of native crystals)” value was “The carboxylic group of the WOH is planar to the Arg374 guanidine group”.

For `O=C(O)[C@@H](O)Cc1ccc(O)cc1` [YOH, 3-(4-hydroxyphenyl)-lactic acid], in test [1], the “X-ray crystal structure (co-crystallisation)” value is given as “interaction of the YOH inhibitor with the residues forming the active site of subunit A”.
